The test system of one experiment is Oryza sativa. Briefly: Inhibition of rice alpha-glucosidase assessed as reduction of p-nitrophenol release using p-nitrophenyl glycoside as substrate at 1000 uM by spectrophotometric analysis relative to control.
The nature of experiment [1]: Inhibition of bovine liver beta-galactosidase assessed as reduction of p-nitrophenol release using p-nitrophenyl glycoside as substrate by spectrophotometric analysis. Also noted: species or system Bos taurus.
For a further experiment, the species on record is Bos taurus. The experiment in a line: Inhibition of bovine liver beta-glucuronidase assessed as reduction of p-nitrophenol release using p-nitrophenyl-glycoside as substrate at 1000 uM by spectrophotometric analysis relative to control.
Experiment [2] in a line: Inhibition of Aspergillus niger amyloglucosidase assessed as reduction of p-nitrophenol release using p-nitrophenyl-glycoside as substrate by spectrophotometric analysis.
The next experiment addresses Beta-glucuronidase (Escherichia coli (strain K12), UniProt P05804). Briefly: Inhibition of Escherichia coli beta-glucuronidase assessed as reduction of p-nitrophenol release using p-nitrophenyl-glycoside as substrate by spectrophotometric analysis.
Experiment [3] is described as follows: Inhibition of human lysosomal beta-glucosidase assessed as reduction of p-nitrophenol release using p-nitrophenyl glycoside as substrate by spectrophotometric analysis.
The species named for the next experiment is Rattus norvegicus. Briefly: Inhibition of rat intestinal maltase assessed as D-glucose release using maltose as substrate at pH 6.8 at 1000 uM by colorimetric method relative to control.
Experiment [4] in a line: Inhibition of snail beta-mannosidase assessed as reduction of p-nitrophenol release using p-nitrophenyl glycoside as substrate by spectrophotometric analysis. Set-up: species or system Helix pomatia.
The species named for a further experiment is Sus scrofa. Briefly: Inhibition of porcine kidney alpha/alpha-trehalase assessed as reduction of p-nitrophenol release using p-nitrophenyl glycoside as substrate at 1000 uM by spectrophotometric analysis relative to control.
Experiment [5] has as its target T1, Alpha-mannosidase (Canavalia ensiformis) (UniProt C0HJB3).
T1 sequence (whole entry): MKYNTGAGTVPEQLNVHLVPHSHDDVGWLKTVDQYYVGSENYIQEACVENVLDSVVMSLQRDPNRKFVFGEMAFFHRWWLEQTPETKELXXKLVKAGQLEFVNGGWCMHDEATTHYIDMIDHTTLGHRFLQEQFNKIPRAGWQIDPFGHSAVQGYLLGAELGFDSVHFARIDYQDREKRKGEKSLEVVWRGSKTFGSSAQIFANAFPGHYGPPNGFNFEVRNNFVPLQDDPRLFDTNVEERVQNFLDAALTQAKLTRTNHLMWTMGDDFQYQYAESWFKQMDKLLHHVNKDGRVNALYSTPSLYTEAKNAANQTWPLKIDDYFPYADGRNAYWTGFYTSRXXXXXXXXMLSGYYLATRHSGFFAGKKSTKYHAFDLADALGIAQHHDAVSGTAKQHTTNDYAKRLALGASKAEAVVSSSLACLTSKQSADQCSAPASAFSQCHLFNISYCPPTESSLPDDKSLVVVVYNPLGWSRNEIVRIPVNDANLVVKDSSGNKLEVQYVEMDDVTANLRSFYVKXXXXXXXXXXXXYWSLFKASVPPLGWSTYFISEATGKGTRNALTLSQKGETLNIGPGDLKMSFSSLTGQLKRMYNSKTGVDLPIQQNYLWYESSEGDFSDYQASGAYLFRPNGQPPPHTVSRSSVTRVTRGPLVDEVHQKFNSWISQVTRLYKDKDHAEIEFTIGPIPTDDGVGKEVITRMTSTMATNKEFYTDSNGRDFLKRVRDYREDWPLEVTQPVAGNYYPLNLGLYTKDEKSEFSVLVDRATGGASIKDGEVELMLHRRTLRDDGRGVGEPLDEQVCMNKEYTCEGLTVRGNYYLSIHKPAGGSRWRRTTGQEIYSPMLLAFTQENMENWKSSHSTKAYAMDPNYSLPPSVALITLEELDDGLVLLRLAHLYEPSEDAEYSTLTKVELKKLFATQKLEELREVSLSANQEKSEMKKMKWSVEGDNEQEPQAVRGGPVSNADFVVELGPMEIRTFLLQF
The experiment in a line: Inhibition of jack bean alpha-mannosidase assessed as reduction of p-nitrophenol release using p-nitrophenyl glycoside as substrate at 1000 uM by spectrophotometric analysis relative to control.

For experiment [6], the target named is Alpha-galactosidase (Coffea arabica) (UniProt Q42656). The experiment in a line: Inhibition of coffee beans alpha-galactosidase assessed as reduction of p-nitrophenol release using p-nitrophenyl glycoside as substrate at 1000 uM by spectrophotometric analysis relative to control.
Sequence of Alpha-galactosidase (Coffea arabica) (Q42656 16-378 limits assumed): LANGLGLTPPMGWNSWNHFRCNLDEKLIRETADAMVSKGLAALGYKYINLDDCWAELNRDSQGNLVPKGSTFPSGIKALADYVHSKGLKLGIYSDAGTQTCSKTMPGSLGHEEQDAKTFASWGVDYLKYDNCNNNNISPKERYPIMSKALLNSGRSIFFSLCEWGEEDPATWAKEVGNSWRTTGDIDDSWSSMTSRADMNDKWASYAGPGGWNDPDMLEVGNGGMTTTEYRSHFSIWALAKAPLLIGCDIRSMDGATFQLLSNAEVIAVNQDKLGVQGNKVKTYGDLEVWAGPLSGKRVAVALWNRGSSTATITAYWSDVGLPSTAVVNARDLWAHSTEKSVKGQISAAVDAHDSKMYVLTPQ
Experiment [7] can be described thus: Inhibition of almond beta-glucosidase assessed as reduction of p-nitrophenol release using p-nitrophenyl glycoside as substrate by spectrophotometric analysis. Also noted: species or system Prunus dulcis.
The subject of another experiment is Penicillium decumbens. The experiment in a line: Inhibition of Penicillium decumbens alpha-L-rhamnosidase assessed as reduction of p-nitrophenol release using p-nitrophenyl-glycoside as substrate at 1000 uM by spectrophotometric analysis relative to control.
Experiment [8] can be described thus: Inhibition of bovine liver beta-glucosidase assessed as reduction of p-nitrophenol release using p-nitrophenyl glycoside as substrate by spectrophotometric analysis. Set-up: species or system Bos taurus.
Another experiment concerns the target Alpha-glucosidase (Saccharomyces cerevisiae S288c, UniProt P53341+P38158+P07265). Briefly: Inhibition of yeast alpha-glucosidase assessed as reduction of p-nitrophenol release using p-nitrophenyl glycoside as substrate by spectrophotometric analysis. Format: protein assay.
The target in experiment [9] is T2, Tissue alpha-L-fucosidase (Bos taurus) (UniProt Q2KIM0).
T2 sequence (whole entry): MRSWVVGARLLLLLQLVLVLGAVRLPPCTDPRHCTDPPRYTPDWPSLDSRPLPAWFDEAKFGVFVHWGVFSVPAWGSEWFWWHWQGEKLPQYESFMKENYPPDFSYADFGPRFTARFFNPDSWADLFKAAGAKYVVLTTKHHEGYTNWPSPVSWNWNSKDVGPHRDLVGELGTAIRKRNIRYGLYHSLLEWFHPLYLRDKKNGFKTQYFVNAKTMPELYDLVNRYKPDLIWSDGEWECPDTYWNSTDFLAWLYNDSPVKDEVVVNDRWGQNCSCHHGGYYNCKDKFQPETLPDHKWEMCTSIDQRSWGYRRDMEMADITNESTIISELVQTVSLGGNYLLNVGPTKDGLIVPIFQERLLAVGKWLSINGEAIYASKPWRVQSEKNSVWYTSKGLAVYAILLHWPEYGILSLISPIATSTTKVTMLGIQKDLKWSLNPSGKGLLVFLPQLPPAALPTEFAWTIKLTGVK
Briefly: Inhibition of bovine kidney alpha-L-fucosidase assessed as reduction of p-nitrophenol release using p-nitrophenyl glycoside as substrate at 1000 uM by spectrophotometric analysis relative to control.

The target of experiment [10] is Alpha-glucosidase (Saccharomyces cerevisiae S288c) (UniProt P53341+P38158+P07265). The experiment in a line: Inhibition of yeast alpha-glucosidase assessed as reduction of p-nitrophenol release using p-nitrophenyl glycoside as substrate at 1000 uM by spectrophotometric analysis relative to control. Format: protein assay.
Another experiment deals with Helix pomatia. The experiment in a line: Inhibition of snail beta-mannosidase assessed as reduction of p-nitrophenol release using p-nitrophenyl glycoside as substrate at 1000 uM by spectrophotometric analysis relative to control.
The nature of experiment [11]: Inhibition of rat intestinal maltase assessed as D-glucose release using maltose as substrate at pH 6.8 by colorimetric method.
Experiment [12] deals with Beta-glucuronidase (Escherichia coli (strain K12)) (UniProt P05804). Briefly: Inhibition of Escherichia coli beta-glucuronidase assessed as reduction of p-nitrophenol release using p-nitrophenyl-glycoside as substrate at 1000 uM by spectrophotometric analysis relative to control.
Sequence of Beta-glucuronidase (Escherichia coli (strain K12)) (P05804 whole entry, looked up): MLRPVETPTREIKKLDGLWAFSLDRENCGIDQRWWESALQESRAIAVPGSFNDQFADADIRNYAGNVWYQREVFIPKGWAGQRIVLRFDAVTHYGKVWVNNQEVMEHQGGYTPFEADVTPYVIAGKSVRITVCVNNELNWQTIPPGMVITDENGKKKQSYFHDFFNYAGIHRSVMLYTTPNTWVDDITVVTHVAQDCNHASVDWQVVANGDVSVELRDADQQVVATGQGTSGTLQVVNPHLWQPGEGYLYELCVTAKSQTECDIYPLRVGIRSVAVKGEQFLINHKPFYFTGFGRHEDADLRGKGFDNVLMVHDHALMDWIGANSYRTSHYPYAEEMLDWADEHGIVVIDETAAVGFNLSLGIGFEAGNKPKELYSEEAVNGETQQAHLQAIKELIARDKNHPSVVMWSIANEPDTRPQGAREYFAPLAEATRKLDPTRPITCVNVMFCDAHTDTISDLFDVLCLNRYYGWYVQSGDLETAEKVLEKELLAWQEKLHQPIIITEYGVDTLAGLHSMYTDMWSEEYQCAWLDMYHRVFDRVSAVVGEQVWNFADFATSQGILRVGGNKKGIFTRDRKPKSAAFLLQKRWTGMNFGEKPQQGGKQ
Experiment [13] can be described thus: Inhibition of rice alpha-glucosidase assessed as reduction of p-nitrophenol release using p-nitrophenyl glycoside as substrate by spectrophotometric analysis. Also noted: species or system Oryza sativa.
A further experiment has as its system Aspergillus niger. The experiment in a line: Inhibition of Aspergillus niger amyloglucosidase assessed as reduction of p-nitrophenol release using p-nitrophenyl-glycoside as substrate at 1000 uM by spectrophotometric analysis relative to control.
The subject of another experiment is Prunus dulcis. Briefly: Inhibition of almond beta-glucosidase assessed as reduction of p-nitrophenol release using p-nitrophenyl glycoside as substrate at 1000 uM by spectrophotometric analysis relative to control.

One may read the inhibition as the drop in the measured response relative to a control, in per cent. A word on the IC50: it is the concentration at which inhibition is half-maximal.

Sequence of Beta-glucuronidase (P05804 whole entry): as the sequence (P05804 whole entry, looked up) above

Consider `CC(C)(C)c1ccc(CCCCCC[C@@H](O)[C@H]2N[C@H](CO)[C@@H](O)[C@@H]2O)cc1.Cl`, for which the inhibition in the experiment with Oryza sativa came to 36.6%; in the experiment filed under Bos taurus it was 4.3%; in the experiment listed under Rattus norvegicus, 48.7%; in the experiment filed under Sus scrofa it was 2.3%; in [5], 8.7%; in [6] it was 5.5%. Also, in the experiment with Penicillium decumbens, the inhibition worked out at 4.8%. The IC50 is 0.002 µM in experiment [1]; 16 µM in [2]; 2.9 µM on Beta-glucuronidase; 0.81 µM in [3]; 14 µM in experiment [4]; 0.064 µM in [7]. The IC50 in [8] was 0.004 µM; on Alpha-glucosidase, 57 µM.
Consider `OC[C@H]1N[C@H]([C@H](O)CCCCCCc2ccc(Cl)cc2)[C@@H](O)[C@@H]1O`, for which the inhibition in the experiment with Oryza sativa came to 8.9%; in the experiment listed under Bos taurus, 0%; in the experiment listed under Rattus norvegicus it was 18.2%; in the experiment listed under Sus scrofa it was 6%; in [5], 4.5%; in experiment [6], 0%. Moreover, the inhibition in [9] turned out to be 0.6%; in the experiment with Penicillium decumbens it was 1.3%; in experiment [10] it was 42.3%. For the same molecule, the IC50 in [1] amounted to 0.003 µM; in [2] it was 32 µM; at Beta-glucuronidase it was 41 µM; in experiment [3], 2.1 µM; in experiment [4] it was 37 µM; in experiment [7], 0.12 µM. In addition, the IC50 in [8] was found to be 0.005 µM.
As for `Cc1ccc(CCCCCC[C@@H](O)[C@H]2N[C@H](CO)[C@@H](O)[C@@H]2O)cc1`, the inhibition in the experiment on Oryza sativa was 15%; in the experiment filed under Bos taurus it was 0%; in the experiment listed under Rattus norvegicus, 10.5%; in the experiment filed under Sus scrofa, 0%; in experiment [5], 5.9%; in experiment [6], 0.9%. Besides, the inhibition in [9] was 0%; in the experiment on Penicillium decumbens, 7%; in experiment [10], 23.5%. For the same molecule, the IC50 was found to be 0.002 µM in experiment [1]; 23 µM in [2]; 13 µM at Beta-glucuronidase; 1.1 µM in experiment [3]; 32 µM in experiment [4]; 0.082 µM in experiment [7]. Further, in [8], the IC50 amounted to 0.003 µM.
Consider `Cl.OC[C@H]1N[C@H]([C@H](O)CCCCCCc2ccc(F)c(F)c2)[C@@H](O)[C@@H]1O`, for which the inhibition in the experiment on Oryza sativa is 43.4%; in the experiment filed under Bos taurus, 4.3%; in the experiment filed under Rattus norvegicus it was 42.5%; in the experiment listed under Sus scrofa, 1.4%; in experiment [5], 16.6%; in [6], 17.2%. Further, in the experiment with Penicillium decumbens, the inhibition came out at 27%. In addition, the IC50 in experiment [1] was found to be 0.004 µM; in experiment [2] it was 11 µM; at Beta-glucuronidase, 21 µM; in experiment [3] it was 2.7 µM; in experiment [4], 16 µM; in experiment [7] it was 0.53 µM. Moreover, the IC50 stood at 0.007 µM in experiment [8] and 87 µM at Alpha-glucosidase.
On to `Cl.OC[C@H]1N[C@H]([C@H](O)CCCCCCc2ccc(F)cc2)[C@@H](O)[C@@H]1O`, for which the inhibition with Oryza sativa was 10.2%; in the experiment filed under Bos taurus it was 7.1%; in the experiment filed under Rattus norvegicus it was 24.2%; in the experiment listed under Sus scrofa, 0%; in experiment [5], 13.9%; in experiment [6], 8.6%. The inhibition in the experiment with Penicillium decumbens stood at 4.1%. Further, the IC50 came to 0.005 µM in experiment [1]; 30 µM in experiment [2]; 36 µM on Beta-glucuronidase; 3.3 µM in experiment [3]; 20 µM in experiment [4]; 0.15 µM in [7]. The results for the IC50 (in experiment [8]; at Alpha-glucosidase) were 0.009 µM and 83 µM, respectively.
In the case of `CC(C)(C)c1ccc(CCCCCC[C@H](O)[C@H]2N[C@H](CO)[C@@H](O)[C@@H]2O)cc1`, the inhibition with Oryza sativa worked out at 48.6%; in the experiment listed under Bos taurus, 0%; in the experiment filed under Rattus norvegicus, 14.1%; in the experiment filed under Sus scrofa, 0%; in experiment [5] it was 0%; in experiment [6], 0.9%. In addition, the inhibition turned out to be 0% in experiment [9], 6.2% in the experiment on Penicillium decumbens and 27.6% in experiment [10]. In addition, the IC50 came out at 0.014 µM in experiment [1]; 63 µM in [2]; 23 µM at Beta-glucuronidase; 3.2 µM in experiment [3]; 96 µM in [4]; 0.36 µM in [7]. The IC50 in experiment [8] is 0.05 µM.
For `OC[C@@H]1N[C@@H]([C@@H](O)CCCCCCc2ccc(Cl)cc2)[C@H](O)[C@H]1O`, the IC50 in experiment [1] is 3.2 µM; in [11], 0.33 µM; in experiment [3] it was 5.9 µM; in experiment [13], 4.3 µM; in experiment [8], 8 µM. The inhibition in the experiment filed under Bos taurus is 0%; in the experiment on Helix pomatia, 0%; in experiment [12], 6.8%; in the experiment listed under Sus scrofa, 0%; in experiment [5] it was 0%; in experiment [6], 3.6%. The inhibition came out at 6.3% in experiment [9]; 0% in the experiment on Penicillium decumbens; 0% in the experiment on Aspergillus niger; 37.1% with Prunus dulcis; 10% in experiment [10].

For the origin of these results see ChEMBL document CHEMBL5331098, “Nanomolar β-glucosidase and β-galactosidase inhibition by enantiomeric α-1-C-alkyl-1,4-dideoxy-1,4-imino-arabinitol derivatives” (Eur J Med Chem, 2023).
